According to patent publication US4927829A, “Heterocyclic compounds and antiulcer agents” (Shionogi & Co., Ltd., priority 1988, dated 1990):
Read-outs that look alike come from different tables or passages of the source.

Tests used:
stress ulcer = experiment: Effect on stress ulcer (water-immersion restraint), oral; type: in vivo, SD rats; conditions: Rattus norvegicus, read-out: Inhibition rate (stress ulcer)
Experimental: Male SD rats (body weight: 260-290 g) which had fasted for 24 hours were placed in a wire net-restraint cage and immersed up to the breast in water at 23° C. After 7 hours, the animals were sacrificed, and the stomach were excised. […] The test compound was suspended in 5% gum arabic solution and orally administered 30 minutes before the stress load.
Cimetidine was used as control drug.

mice = experiment: Acute toxicity test, intraperitoneal, mice; type: in vivo; conditions: n=5-6, up to 500 mg/kg
Description: From the above-mentioned results it is evident that the antiulcer activity of the compounds (I) of this invention was about ten times as potent as that of control drug.

[1] = oral, 30 minutes before stress load, male SD rats, 23° C. water immersion, 7 hours
[2] = 30 mg/kg, oral, 30 minutes before stress load, male SD rats, 23° C. water immersion, 7 hours

SMILES	inhibition in vivo at 30 mg/kg (stress ulcer; po, 7 h)	acute toxicity (dead cases) (mice)	inhibition in vivo at 3 mg/kg (stress ulcer; [1])	inhibition in vivo at 10 mg/kg (stress ulcer; [1])	inhibition in vivo at 30 mg/kg (stress ulcer; [2])	inhibition in vivo at 1 mg/kg (stress ulcer; 1 mg/kg, oral, 30 minutes before stress load, male SD rats, 23° C. water immersion, 7 hours)
CN/C(=N/CCSCc1nc[nH]c1C)NC#N [Cimetidine, reference compound]	56%					
O=C(Sc1cccn2c(=O)ccnc12)N1CCSCC1 [Example 7]		no dead case even at a dose of 500 mg/kg	46%	77%	71%	
O=C(Sc1cccn2c(=O)ccnc12)N1CCOCC1 [Example 9]			33%	66%	80%	
CCOC(=O)c1cnc2c(SC(=O)N3CCCCC3)cccn2c1=O [Example 13]			34%	70%	81%	
CCOC(=O)c1cnc2c(SC(=O)N3CCSC3)cccn2c1=O [Example 14]		no dead case even at a dose of 500 mg/kg	50%	68%	89%	45%
CCOC(=O)c1cnc2c(SC(=O)N3CCCC3)cccn2c1=O [Example 16]			40%	62%	85%	
O=C(Sc1cccn2c(=O)ccnc12)N1CCSC1 [Example 17]		no dead case even at a dose of 500 mg/kg	74%	72%	70%	
O=C(Sc1cccn2c(=O)ccnc12)N1CCCCC1 [Example 18]			80%	76%		
O=C(Sc1cccn2c(=O)ccnc12)N1CCCC1 [Example 19]				45%		
